Test results published in BindingDB's records for doi:10.1016/s0960-894x(99)00005-0 (Smithkline Beecham Pharmaceuticals, 1999).
pIC50: −log10 of the molar value.

Test: Inhibitory activity against varicella zoster virus (VZV) protease

| Structure (SMILES) | pIC50 |
| --- | --- |
| Cc1csc2nc([C@H](C)NC(=O)/C=C/C(=O)c3ccccc3[N+](=O)[O-])oc(=O)c12 [(E)-4-(2-Nitro-phenyl)-4-oxo-but-2-enoic acid [(S)-1-(5-methyl-4-oxo-4H-thieno[2,3-d][1,3]oxazin-2-yl)-ethyl]-amide] | 6.08 |
| CCOc1ccc(C(=O)/C=C/C(=O)N[C@@H](C)c2nc3scc(C)c3c(=O)o2)cc1 [(E)-4-(4-Ethoxy-phenyl)-4-oxo-but-2-enoic acid [(S)-1-(5-methyl-4-oxo-4H-thieno[2,3-d][1,3]oxazin-2-yl)-ethyl]-amide] | 5.80 |
| Cc1csc2nc([C@H](C)NC(=O)/C=C/C(=O)c3cccs3)oc(=O)c12 [(E)-4-Oxo-4-thiophen-2-yl-but-2-enoic acid [(S)-1-(5-methyl-4-oxo-4H-thieno[2,3-d][1,3]oxazin-2-yl)-ethyl]-amide] | 6.19 |
| CC(=O)C=CC(=O)N[C@@H](C)c1nc2scc(C)c2c(=O)o1 [(E)-4-Oxo-pent-2-enoic acid [(S)-1-(5-methyl-4-oxo-4H-thieno[2,3-d][1,3]oxazin-2-yl)-ethyl]-amide] | 5.87 |
| Cc1csc2nc([C@H](C)NC(=O)CCC(=O)c3cccs3)oc(=O)c12 [N-[(S)-1-(5-Methyl-4-oxo-4H-thieno[2,3-d][1,3]oxazin-2-yl)-ethyl]-4-oxo-4-thiophen-2-yl-butyramide] | 6.09 |

Compounds with a higher pIC50, results first:

| pIC50 | Structure (SMILES) |
| --- | --- |
| 6.39 | Cc1csc2nc([C@H](C)NC(=O)/C=C/C(=O)c3cccc(C#N)c3)oc(=O)c12 [(E)-4-(3-Cyano-phenyl)-4-oxo-but-2-enoic acid [(S)-1-(5-methyl-4-oxo-4H-thieno[2,3-d][1,3]oxazin-2-yl)-ethyl]-amide] |
| 6.47 | COc1cccc(C(=O)/C=C/C(=O)N[C@@H](C)c2nc3scc(C)c3c(=O)o2)c1 [(E)-4-(3-Methoxy-phenyl)-4-oxo-but-2-enoic acid [(S)-1-(5-methyl-4-oxo-4H-thieno[2,3-d][1,3]oxazin-2-yl)-ethyl]-amide] |
